33 compounds from patent US11628181B2, “N4-hydroxycytidine and derivatives and anti-viral uses related thereto” (Emory University, priority 2014, dated 2023) can be followed below.

For one data set, the system named is CHIKV. Description: microbe, parasite or virus in culture. The following applies: Chikungunya virus.
Another data set concerns VEEV. The data set can be described thus: microbe, parasite or virus in culture. The class given is cell-based. The following applies: Venezuelan equine encephalitis virus, HeLa; for inhibition at 10 µM: read-out: Viral Inh. 10 uM; for inhibition at 50 µM: read-out: Viral Inh. 50 uM.
In a further data set the test system is HeLa. The following applies: human.
The test system of the next data set is Chikungunya virus. Description: Chikungunya virus (MOI 0.5) viral inhibition in U2OS cell line. The note with it: for inhibition at 10 µM: read-out: Viral Inh. 10 uM; for inhibition at 50 µM: read-out: Viral Inh. 50 uM. The class given is cell-based.
A further data set relates to U2OS cell line. The data set can be described thus: Cell viability, U2OS cell line (Chikungunya screen).

For orientation: EC50 means the concentration that produces a half-maximal response. Lower therefore signals higher potency in that assay. On to `CC(C)(C)C(=O)OCOP(=O)(OCOC(=O)C(C)(C)C)OC[C@@]1(N=[N+]=[N-])O[C@@H](n2ccc(=O)[nH]c2=O)[C@@H](O)C1O` (stereo partly shown) [EIDD-02110-03], for which the CC50 in the data set “in vitro” stood at 387 µM. This compound registered an EC50 with CHIKV of 56 µM.

As for `CC(C)OC(=O)[C@H](C)NP(=O)(OC[C@H]1O[C@@H](n2ccc(NO)nc2=O)C(O)C1O)Oc1ccccc1` (stereo partly shown) [drawing 80], in the data set on VEEV, the EC50 stood at 16.2 µM, the inhibition at 10 µM stood at 73% and the inhibition at 50 µM stood at 100%. In the data set with HeLa, the “Cell Viability 10 uM” value was 137% ± 16% (n = 4) and the “Cell Viability 50 uM” value was 134% ± 16% (n = 4).

The compound `CC(C)(C)C(=O)OCOP(=O)(OCOC(=O)C(C)(C)C)OC[C@H]1O[C@@H](n2ccc(=O)[nH]c2=O)[C@](C)(F)C1O` (stereo partly shown) [EIDD-02427-01] returned a CC50 in the data set “in vitro” of 355 µM. For the same compound, in the data set with CHIKV, the half-maximal effective concentration (EC50) was found to be 58 µM.

As for `O=c1ccn([C@@H]2O[C@H](CO)C(O)[C@]23CC3(F)F)c(=O)[nH]1` (stereo partly shown) [EIDD-02339-01], in the data set “in vitro”, the CC50 is > 500 µM. In addition, the EC50 in the data set on CHIKV was > 78 µM.

For `O=c1ccn([C@@H]2O[C@H](CO)C(O)[C@@]23CC3(F)F)c(=O)[nH]1` (stereo partly shown) [EIDD-02340-01], in “in vitro”, the CC50 is > 500 µM. In addition, the EC50 with CHIKV is > 78 µM.

With `O=c1nc(NO)ccn1[C@@H]1O[C@H](CO)C(O)C1O` (stereo partly shown) [drawing 78], in the data set on VEEV, the EC50 turned out to be 1.24 µM, the inhibition at 10 µM is 100% and the inhibition at 50 µM worked out at 100%. In addition, in the data set on HeLa, the “Cell Viability 10 uM” value is recorded as 116% ± 24% (n = 4) and the “Cell Viability 50 uM” value is 61% ± 8% (n = 4).

Regarding `CCCCCCCOC(=O)ONc1ccn([C@@H]2O[C@H](CO)C(O)C2O)c(=O)n1` (stereo partly shown) [drawing 74], in the data set on Chikungunya virus, the inhibition at 10 µM stood at 72% and the inhibition at 50 µM is 98%. In the data set with U2OS cell line, the “Cell Viability 10 uM” value is on record as 93% ± 4% (n = 4) and the “Cell Viability 50 uM” value is 79% ± 8% (n = 4).

`CCCCCCCCCCCCCCCCCCNC(=O)ONc1ccn([C@@H]2O[C@H](CO)[C@H](O)C2O)c(=O)n1` (stereo partly shown) [EIDD-02357-01] yielded a CC50 in “in vitro” of 90 µM. Also, the EC50 in the data set with CHIKV is > 78 µM.

For `O=c1nc(NO)ccn1[C@@H]1O[C@H](CO)[C@H](O)C1F` (stereo partly shown) [EIDD-02085-01], in the data set “in vitro”, the CC50 was > 500 µM. For the same compound, the EC50 in the data set with CHIKV was > 75 µM.

`CC(C)(C)C(=O)OCOP(=O)(OCOC(=O)C(C)(C)C)OC[C@H]1O[C@@H](n2ccc(=O)[nH]c2=O)[C@](C)(O)C1O` (stereo partly shown) [EIDD-02416-01] showed a CC50 in “in vitro” of 53 µM. The same compound came in with an EC50 in the data set with CHIKV of 27 µM.

With `O=c1nc(NO)ccn1[C@@H]1O[C@H](COP2(=O)OCc3ccccc3O2)C(O)[C@@H]1O` (stereo partly shown) [EIDD-02207-01], in “in vitro”, the CC50 is > 500 µM. The midpoint of the response in the data set on CHIKV, the EC50, lay at 10.8 µM.

In the case of `CCCCCCCOC(=O)ONc1ccn([C@@H]2O[C@H](CO)C(O)C2O)c(=O)n1` (stereo partly shown) [drawing 79], in the data set on VEEV, a half-maximal effect (EC50) was put at 0.57 µM, the inhibition at 10 µM came out at 100% and the inhibition at 50 µM was found to be 100%. Moreover, in the data set on HeLa, the “Cell Viability 10 uM” value was 116% ± 20% (n = 4) and the “Cell Viability 50 uM” value is on record as 85% ± 8% (n = 4).

Regarding `C#C[C@@]1(O)C(O)[C@@H](COP(=O)(OCOC(=O)C(C)(C)C)OCOC(=O)C(C)(C)C)O[C@H]1n1ccc(=O)[nH]c1=O` (stereo partly shown) [EIDD-02290-01], the CC50 in “in vitro” was found to be 274 µM. Further, in the data set with CHIKV, the EC50 was found to be 64.4 µM.

Regarding `[2H]C([2H])(O)[C@H]1O[C@@H](n2ccc(NO)nc2=O)[C@@H](O)C1O` (stereo partly shown) [EIDD-02345-01], in “in vitro”, the CC50 was > 500 µM. Moreover, in the data set with CHIKV, the EC50 turned out to be 1.5 µM.

As for `[2H]c1cn([C@@H]2O[C@H](CO)C(O)[C@@H]2O)c(=O)nc1NO` (stereo partly shown) [EIDD-02261-01], the CC50 in “in vitro” was > 500 µM. In the data set on CHIKV, this compound registered an EC50 of 1.5 µM.

As for `CCCCCCCCCCCCCCCCNC(=O)ONc1ccn([C@@H]2O[C@H](CO)[C@H](O)C2O)c(=O)n1` (stereo partly shown) [EIDD-02356-01], in the data set “in vitro”, the CC50 came to 211 µM. Moreover, the EC50 with CHIKV is > 78 µM.

As to `CN(C)C(=O)ONc1ccn([C@@H]2O[C@H](CO)[C@H](O)C2O)c(=O)n1` (stereo partly shown) [EIDD-02423-01], the CC50 in “in vitro” was > 500 µM. This compound displayed a 50% effective concentration (EC50) with CHIKV of 25 µM.

For `CCOP(=O)(OCC)OC[C@H]1O[C@@H](n2ccc(NO)nc2=O)[C@@H](O)C1O` (stereo partly shown) [EIDD-02503-01], the CC50 in “in vitro” is > 500 µM. Further, the EC50 in the data set with CHIKV was > 78 µM.

With `O=c1nc(NO)c(F)cn1[C@@H]1O[C@H](CO)C(O)C1O` (stereo partly shown) [drawing 76], in the data set on Chikungunya virus, the inhibition at 10 µM amounted to 8% and the inhibition at 50 µM was 51%. Also, in the data set on U2OS cell line, the “Cell Viability 10 uM” value was 81% ± 4% (n = 4) and the “Cell Viability 50 uM” value was 53% ± 2% (n = 4).

Consider `CCCCCCCCCCCCCCCCOCCCOP(=O)(O)OC[C@H]1O[C@@H](n2ccc(NO)nc2=O)[C@@H](O)C1O` (stereo partly shown) [EIDD-02108-03], for which, in “in vitro”, the CC50 was 98 µM. Also, the concentration for a half-maximal effect (EC50) with CHIKV worked out at 34.5 µM.

As to `CCCCCCCNC(=O)OC[C@H]1O[C@@H](n2ccc(NO)nc2=O)C(O)[C@H]1O` (stereo partly shown) [EIDD-02475-01], the CC50 in the data set “in vitro” is > 500 µM. Besides, the EC50 in the data set with CHIKV was > 78 µM.

As to `CNC(=O)ONc1ccn([C@@H]2O[C@H](CO)C(O)[C@@H]2O)c(=O)n1` (stereo partly shown) [EIDD-02422-01], the CC50 in the data set “in vitro” is > 500 µM. The response in the data set with CHIKV was half-maximal at 32 µM (EC50).

As for `C[C@@]1(O)C2OP(=O)(Oc3ccccc3)OC[C@H]2O[C@H]1n1ccc(=O)[nH]c1=O` (stereo partly shown) [EIDD-01872-01], in “in vitro”, the CC50 is > 500 µM. Further, the EC50 in the data set with CHIKV was > 78 µM.

Turning to `CC(C)OC(=O)[C@H](C)NP(=O)(OC[C@H]1O[C@@H](n2ccc(NO)nc2=O)C(O)C1O)Oc1ccccc1` (stereo partly shown) [drawing 75], in the data set with Chikungunya virus, the inhibition at 10 µM came to 3% and the inhibition at 50 µM worked out at 36%. Further, in the data set with U2OS cell line, the “Cell Viability 10 uM” value was 99% ± 6% (n = 4) and the “Cell Viability 50 uM” value is 99% ± 8% (n = 4).

With `CCCCCCCNC(=O)ONc1ccn([C@@H]2O[C@H](CO)C(O)C2O)c(=O)n1` (stereo partly shown) [drawing 77], in the data set with Chikungunya virus, the inhibition at 10 µM is 14% and the inhibition at 50 µM is 70%. Besides, in the data set with U2OS cell line, the “Cell Viability 10 uM” value was 105% ± 2% (n = 4) and the “Cell Viability 50 uM” value is recorded as 96% ± 11% (n = 4).

The compound `CCCCCCCOC(=O)OC[C@H]1O[C@@H](n2ccc(NO)nc2=O)C(O)[C@H]1O` (stereo partly shown) [EIDD-02474-01] showed a CC50 in “in vitro” of 184 µM. Besides, it took 0.07 µM to reach a half-maximal effect in the data set with CHIKV (EC50).

As for `CCCCCCCCC(=O)OC[C@H]1O[C@@H](n2ccc(NO)nc2=O)C(O)[C@H]1O` (stereo partly shown) [EIDD-02476-01], in the data set “in vitro”, the CC50 came out at 154 µM. Moreover, the EC50 with CHIKV worked out at 0.3 µM.

On to `O=c1nc(NO)ccn1[C@@H]1O[C@H](CO)C(O)[C@@H]1O` (stereo partly shown) [EIDD-02200-01], for which the CC50 in the data set “in vitro” is > 500 µM. In addition, in the data set with CHIKV, the EC50 was > 78 µM.

On to `NNc1ccn([C@@H]2O[C@H](CO)C(O)[C@@H]2O)c(=O)n1` (stereo partly shown) [EIDD-01910-01], for which the CC50 in the data set “in vitro” is > 500 µM. Further, the EC50 in the data set with CHIKV was > 78 µM.

For `O=c1nc(NO)ccn1[C@@H]1O[C@H](CO)C(O)C1O` (stereo partly shown) [drawing 73], in the data set on Chikungunya virus, the inhibition at 10 µM was 80% and the inhibition at 50 µM was determined as 100%. Further, in the data set on U2OS cell line, the “Cell Viability 10 uM” value is on record as 97% ± 5% (n = 4) and the “Cell Viability 50 uM” value is 79% ± 10% (n = 4).

`CC1(F)[C@@H](O)[C@@H](CO)O[C@H]1n1ccc(NO)nc1=O` (stereo partly shown) [EIDD-02080-01]: the CC50 in the data set “in vitro” is > 500 µM. Also, the EC50 with CHIKV was > 75 µM.

`CCCCCCCNC(=O)ONc1ccn([C@@H]2O[C@H](CO)[C@H](O)C2O)c(=O)n1` (stereo partly shown) [EIDD-02107-01] gave a CC50 in the data set “in vitro” of 165 µM. In the data set on CHIKV, this compound returned an EC50 of 29 µM.

With `O=c1nc(NO)cc[nH]1` [EIDD-02504-01], the CC50 in “in vitro” was > 500 µM. Besides, in the data set with CHIKV, the EC50 was > 78 µM.
